# Reference: US7906709B2, “Methods for breeding glyphosate resistant plants and compositions thereof” (priority 2006, dated 2011)
# Columns and labels:
# [1] = system: R biotype of the California rigid ryegrass; assay: Glyphosate drops on leaves, resistant biotype; type: in vivo, Lolium rigidum; conditions: three 2 µl drops on two leaves, corresponds to 1.12 kg ai ha^-1; one week after treatment; ROUNDUP ULTRA (isopropylamine salt)
# Description: Rigid ryegrass (Lolium rigidum Gaud.) plants are collected from an almond orchard intensively treated with glyphosate since 1984. The collected plants are grown and seed produced in greenhouse. The resistant, intermediate and susceptible biotypes are selected in the first generation using 1.12, 2.24, and 3.36 kg ai ha^−1 rates of glyphosate. Further selection is continued with a high glyphosate rate (8.96 kg ai ha^−1) to select for the resistant and with the low rate (0.28 kg ai ha^−1) to select for the susceptible individuals. The resistant (R) and susceptible (S) biotypes used in this example are generated from the 5th and 4th cycle, respectively.
# R and S biotypes of the California rigid ryegrass are grown individually to the fully vegetatively mature stage prior to seedhead formation. In one experiment, two fully mature leaves of each plant (one R and one S biotypes) are treated with three 2 μl drops of glyphosate (glyphosate isopropylamine salt, ROUNDUP ULTRA™, Monsanto Co., St. Louis, Mo.) solution applied to the upper leaf surface. This corresponds to a field rate of 1.12 kg ai ha^−1 glyphosate at a volume of 187 L ha^−1 and pressure of 172.5 kPa. One week after treatment, the S biotype is dead, but no injury is observed on the R biotype.
# [2] = system: S line of rigid ryegrass; assay: Dose response study of plant injury, S line; type: in vivo, Lolium rigidum; conditions: visual injury 4 WAT, 1× = 1.12 kg ai ha^-1
# Description: A dose response study is conducted on the R and S lines of rigid ryegrass. The rates of glyphosate applied varied from 0.125×, 0.25×, 0.5×, 1×, 2×, 4×, 6×, 8×, 10×, to 12×. The sprayed solutions and application procedures are similar to those described previously. Plants are evaluated for visual injury at 4 WAT. Data (4 WAT) from two experiments with 8 replications of each treatment are analyzed by non-linear regression and fitted to a log-logistic model:
# [formula] where y is predictive of plant injury (% of control), X50=dose required to obtain 50% injury and b is the slope at X50.
# [3] = system: F2 population from cross between perennial ryegrass and glyphosate resistant rigid ryegrass; assay: Glyphosate sensitivity of F2 hybrid population; type: in vivo, Lolium perenne x Lolium rigidum; conditions: 0.5× glyphosate; 3 WAT
# Description: The population of F2 is evaluated for glyphosate sensitivity with 0.5× glyphosate. Severely injured and dead plants are recorded 3 weeks after treatment (WAT) and are designated similar to the sensitive (S) parent. The survivors are re-acclimated for further evaluation at 8× glyphosate. The survivors from 8× glyphosate are designated similar to resistant (R) parent. The rest of the population that responded between S and R are identified as intermediate (I).
# [4] = system: perennial ryegrass; assay: Glyphosate sensitivity of perennial ryegrass parent; type: in vivo, Lolium perenne; conditions: sensitive parent
# Description: The R biotype of California rigid ryegrass, which survived 8× glyphosate and perennial ryegrass, which died from 0.25× of glyphosate, are grown individually in 950-ml pots with professional planting mix media as discussed above. Plants are maintained in greenhouse with supplemental light, watered daily, and fertilized weekly with NPK water soluble fertilizer (20-20-20). At the mature vegetative stage, perennial ryegrass plants are vernalized in the growth chamber with the temperature 4 ±1 C, 8 h day and 16 h night. After 4 weeks vernalization, the plants are removed and maintained in greenhouse until flowering.
# Segregation of glyphosate sensitivity in the F2 population is illustrated in FIG. 4. The percentage of the sensitive plants in F2 (16 percent) is higher than expected due to the glyphosate rate (0.5×) exceeded the sensitivity level of sensitive parents.
# [5] = system: resistant (R) clone from F2bc1 hybrid; assay: Glyphosate sensitivity of resistant clone from F2bc1; type: in vivo, Lolium perenne x Lolium rigidum
# Description: The resistant plant from F2 population is backcrossed to the S parent (perennial ryegrass). Procedures for vernalization and pollination are similar to what is described above. Plants of the F1 hybrid from the backcross (F1bc1) are allowed to intercross to generate F2 (F2bc1). The inheritance of glyphosate resistance traits is evaluated in the F2bc1 population. Glyphosate sensitivity is evaluated at 0.25× and 8× glyphosate. Data collection and genetic evaluation are similar to the procedures as described above.
# Backcrossing between the resistant plants from F2 to the sensitive parent of perennial ryegrass is designed to re-capture agronomic characteristics of sensitive parents (perennial ryegrass). The level of glyphosate resistance in the F1bc1 population appears to be similar to the previous results in F1 population. Distribution of glyphosate sensitivity level in the F2bc1 population is illustrated in FIG. 5. A sample of the resistant plants from the F2bc1 is evaluated for the level of sensitivity at 0, 1, 2, 4, 6, 8, 10, 12, and 14× glyphosate and data is illustrated in FIG. 6. No injury is observed up to 6× glyphosate, slight injury is observed at 8× and 10×, and severe injury is observed at 12× glyphosate.
# [6] = system: Transformed Agrobacterium (glyphosate-resistant rigid ryegrass EPSPS); assay: Growth in M-9 media with glyphosate, transformed with resistant EPSPS; type: cell-based, Agrobacterium tumefaciens; conditions: 48 hours
# Description: The level of glyphosate resistance is assayed from resistant rigid ryegrass EPSPS-expressing Agrobacterium that are transformed with a DNA construct encoding the resistant EPSPS enzyme (SEQ. ID. NO. 16).
# An EPSPS gene (SEQ. ID. NO. 15) is obtained from glyphosate resistant rigid ryegrass. The EPSPS gene is ligated with the binary vector pFGC5941, a 11406 bp construct with kanamycin resistant gene, BAR gene as a selectable marker, and 35S Promoter. The ligation is cloned in pGEM vector and grown in LB broth. The plasmid from cloned pGEM is confirmed for the inserted EPSPS gene by PCR.
# The confirmed plasmid is transformed into Agrobacterium tumefaciens by “freeze thaw technique” using liquid nitrogen. The transformed Agrobacterium is grown in LB plated and maintained 28° C. for 72 h. Some colonies are grown in LB broth for 24 h and tested for the inserted EPSPS gene by PCR. The confirmed Agrobacterium is grown in 50 mL LB broth for 24 h. The Agrobacterium is centrifuged at 5000×g for 10 min, and the pellets are diluted with 2 mL 1.0 M CaCl2. At the same time, a wild-type Agrobacterium is also grown and extracted similar to the transformed Agrobacterium. The Agrobacterium solutions (10 μL) are grown in 50 mL media containing 1×M-9 salt media (SIGMA), 20 mM glucose, 2 mM MgSO4, and glyphosate at 0, 0.25, 0.5, 0.75, 1.0, 1.5, and 2 mM.
# The growth (indicated by Optical Density 600 nm) is measured after 48 hours.
smiles,measurement,setting,value
"O=C(O)CNCP(=O)(O)O [glyphosate, N-(phosphonomethyl) glycine]",Plant injury,[1],no injury
same,glyphosate rate for 50% injury,[2],0.1 ×
same,percentage of the sensitive plants in F2,[3],16%
same,sensitivity level (glyphosate rate from which plants died),[4],0.25 ×
same,injury,[5]; 8× and 10× glyphosate,slight injury
same,injury,[5]; 12× glyphosate,severe injury
same,injury,[5]; up to 6× glyphosate,No injury
same,"Growth, OD 600 nm",[6]; glyphosate 0.25 mM,0.632
same,"Growth, Percent",[6]; glyphosate 0.25 mM,98%
same,"Growth, OD 600 nm",[6]; glyphosate 0.50 mM,0.185
same,"Growth, Percent",[6]; glyphosate 0.50 mM,29%
same,"Growth, OD 600 nm",[6]; glyphosate 0.75 mM,0.097
same,"Growth, Percent",[6]; glyphosate 0.75 mM,15%
same,"Growth, OD 600 nm",[6]; glyphosate 1.00 mM,0.025
same,"Growth, Percent",[6]; glyphosate 1.00 mM,4%
same,"Growth, OD 600 nm",[6]; glyphosate 1.50 mM,0.024
same,"Growth, Percent",[6]; glyphosate 1.50 mM,4%
same,"Growth, OD 600 nm",[6]; glyphosate 2.00 mM,0.02
same,"Growth, Percent",[6]; glyphosate 2.00 mM,3%
